# Assay results: patent US20090221530A1, “Relaxase Modulators and Methods of Using Same” (priority 2005, published 2009)
# Where two headings read alike, the source gives them in different places.
# What was measured:
# Assay type in all cases: cell-based, E. coli
# F+ donor cells = assay: microbe, parasite or virus in culture; settings: for EC50: Escherichia coli, 100 min, vs. F+ donor cells, read-out: 100 minute EC50; for Selectivities by EC50, Transconj.: listed as vs. F+ donor cells relative to transconjugants
# Description: (§1) A 96-well fluorescence-based assay using oxygen biosensor plates (Becton Dickinson, Franklin Lakes, N.J., U.S.A.) was employed to monitor bacterial cell survival. FIG. 7 schematically illustrates the assay mechanism of action. […] In the absence of viable bacteria, however, no fluorescence emission is detected because the fluorophore is quenched by free oxygen. The assay can further be utilized to measure conjugative DNA transfer.
# (§2) Relaxase-dependent cell survival was examined by placing cultures of F+/TraI+ E. coli cells (with antibiotic resistance, e.g., Ab^r1, on a non-conjugative plasmid) within wells and exposing them to putative inhibitory compounds. […] Negative controls for this assay can be F− (Ab^r2) cells and F+ cells (Ab^r1) containing either no F plasmid relaxase (TraI) gene, or a TraI harboring catalytic tyrosine to phenylalanine mutations; in both cases, these control cells should be resistant to relaxase-dependent cell toxicity. […] Fluorescence can be measured using a PHERASTAR™ fluorescence plate reader (BMG LABTECH, Offenburg, Germany) over 8 hours time.
# F− recipient cells = assay: microbe, parasite or virus in culture; settings: for EC50: Escherichia coli, 100 min, vs. F− recipient cells, read-out: 100 minute EC50; for Selectivities by EC50, Donors: listed as vs. F− recipient cells relative to donors; for Selectivities by EC50, Transconj.: listed as vs. F− recipient cells relative to transconjugants
# Description: as §1, §2
# transconjugants = assay: microbe, parasite or virus in culture; settings: for EC50: Escherichia coli, 100 min, read-out: 100 minute EC50, vs. transconjugants; for Selectivities by EC50, Donors: listed as vs. transconjugants relative to donors
# Description: as §1, §2
# F+ or F− cells = assay: 24 hr. MIC bounds (turbid/clear wells); settings: Escherichia coli, 8x serial dilutions, bounds identical for F+ or F− cells
# [1] = first EC50 block, mass concentration
# [2] = second block, mass concentration
smiles,measurement,setting,value
"O=P(O)(O)NP(=O)(O)O [pNp, imidodiphosphate]",EC50,F+ donor cells; [1],0.063 µg/mL
same,EC50,F+ donor cells; first EC50 block,0.000356 mM
same,EC50,F+ donor cells; [2],8000 µg/mL
same,EC50,F+ donor cells; second block,43 mM
same,"Selectivities by EC50, Transconj.",F+ donor cells; first EC50 block,6.7E−02
same,"Selectivities by EC50, Transconj.",F+ donor cells; second block,4.9E+00
same,EC50,F− recipient cells; [1],105 µg/mL
same,EC50,F− recipient cells; first EC50 block,0.593 ± 0.0035 mM
same,EC50,F− recipient cells; [2],6000 µg/mL
same,EC50,F− recipient cells; second block,35 mM
same,"Selectivities by EC50, Donors",F− recipient cells; first EC50 block,1.7E+03
same,"Selectivities by EC50, Donors",F− recipient cells; second block,8.0E−01
same,"Selectivities by EC50, Transconj.",F− recipient cells; first EC50 block,1.1E+02
same,"Selectivities by EC50, Transconj.",F− recipient cells; second block,4.0E−00
same,EC50,transconjugants; first EC50 block,0.005 mM
same,EC50,transconjugants; [1],0.936 µg/mL
same,EC50,transconjugants; second block,9 mM
same,EC50,transconjugants; [2],2000 µg/mL
same,"Selectivities by EC50, Donors",transconjugants; first EC50 block,1.5E+01
same,"Selectivities by EC50, Donors",transconjugants; second block,2.0E−01
same,MIC,"F+ or F− cells; clear wells after 24 hr. incubation, read-out: 24 hr. MIC bounds, upper",100 mM
same,MIC,"F+ or F− cells; turbid wells after 24 hr. incubation, read-out: 24 hr. MIC bounds, lower",12.5 mM
